Laboratory results reported in patent publication US20140228540A1, “POLYPEPTIDES THAT BIND TISSUE INHIBITOR OF METALLOPROTEINASE TYPE THREE (TIMP-3), COMPOSITIONS AND METHODS” (Amgen Inc., priority 2009, published 2014).
Where two headings read alike, the source gives them in different places.

Tests used:
HTB-94 cells = test: Accumulation of TIMP-3 in the medium of cultured HTB-94 cells; type: cell-based
Description: This example describes an assay to evaluate the accumulation of TIMP-3 in the medium of cultured cells. HTB-94™ cells (a chondrocytic cell line available from the American Type Culture Collection, Manassas, Va.) are plated to 24-well tissue culture plates at 1×10̂5 cells per well in 1 ml growth medium (RPM11640, 10% FBS, 1% PSG), and incubated at 37 C, 5% CO2 overnight. The cells are then washed once with PBS, and the wells are replenished with 250 microL serum-free medium (RPM11640, 1% PSG; designated SF in the tables below) to which is added the polypeptide being tested or a control (for example medium containing heparin, 1 mg/ml). Proteins to be tested are diluted to appropriate concentrations, for example as shown in the Tables below, and added to the cells. Cells are then incubated at 37 C, 5% CO2 for two additional days, day 2 conditioned medium (CM) samples are collected and clarified by centrifugation (i.e., for 5 minutes at 10K RPM) and the supernatant fluid is collected and stored at −20 C until assayed. Analysis is done on 100 microL CM samples, either by Western blot or by using a standard human TIMP-3 ELISA as per the manufacturer's protocol (R&D Systems Inc., Minneapolis, Minn.).

[1] = test system: biotinylated recombinant human or mouse TIMP-3; test: TIMP-3 AlphaScreen binding assay
Description: Peptides were also evaluated by AlphaScreen® (Amplified Luminescent Proximity Homogeneous Assay; PerkinElmer, Waltham, Mass.) a very sensitive non-radioactive homogeneous assay technology that allows the screening of a large range of biological interactions and activities, substantially according to the manufacturer's instructions. Briefly, all dilutions are made in AlphaScreen® Buffer: [40 mM HEPES pH 7.5, 100 mM NaCl, 1 mM CaCl2, 0.1% BSA, 0.05% Tween-20]. The LRP-1 peptides are titrated in a separate polypropylene 96-well plate (Falcon) starting at 4 microM concentration and then diluted serially 3-fold for 12-points, with the last point buffer only. First 2 microL/well of protein titration curve is added to white, small volume, 384-well assay plate (Greiner Bio-One, Stonehouse, UK) in duplicate. Next, 2 microL of biotinylated (AFS, in-house conjmicroGation) recombinant human or mouse TIMP-3, is added at 12 nM (or 3 nM final assay concentration) to the assay plate. Lastly, in subdued light 4 microL of a mixture of streptavidin donor beads, anti-mouse IgG acceptor beads (PerkinElmer) both diluted to 20 microG/mL (10 microG/mL final assay concentration) and 2 nM (1 nM final concentration) rat-anti-HA (clone3F10)-HRP (Roche Diagnostics) is added to the plates. Plates containing 8 microL final assay volume are covered with TopSeal A (to prevent evaporation), spun quickly at 1000 rpm, and incubated overnight (covered with foil to prevent light exposure) before reading on Fusion plate reader (PerkinElmer) using AlphaScreen® parameters (excitation 680 nm and emission 520-620 nm). Data is analyzed using GraphPad Prism 4.01 software. Binding to TIMP-3 is reported as total signal (cps).

TIMP-3 = test: Binding ELISA of LRP-1 peptides to TIMP-3 (Table 2; format and species not specified); parameters: species or system human or mouse
[2] = Assay 2, read-out: Binding ELISA EC50 (nm) Assay 2
[3] = Assay 1, read-out: Binding ELISA EC50 (nm) Assay 1

Molecule	AlphaScreen total signal (cps) Assay 1 [1]	AlphaScreen total signal (cps) Assay 2 [1]	TIMP-3 (ng/ml) in conditioned medium (HTB-94 cells; Table 7, peptides 2 microM) [ng/mL]	TIMP-3 (ng/ml) in conditioned medium (HTB-94 cells; Table 6, peptides 2 microM) [ng/mL]	also measured
Cluster III: LRP-1 peptide, amino acids 2524- (end not printed)	–	–	–	–	Accumulation of TIMP-3 in conditioned medium by Western blot (HTB-94 cells): did not result in significant accumulation
LA3-4: LRP-1 peptide multimer, amino acids 854-930	9,000 cps	3,500 cps	–	–	–
LA3-5: LRP-1 peptide multimer, amino acids 854-975	4,000 cps	9,000 cps	4.22	–	–
LA3: LRP-1 peptide monomer, amino acids 854-894	2,200 cps	2,000 cps	–	0.60	–
LA4-5: LRP-1 peptide multimer, amino acids 895-975	2,200 cps	2,000 cps	2.68	–	–
LA5-7: LRP-1 peptide multimer, amino acids 931-1061	2,000 cps	8,000 cps	–	–	–
LA5: LRP-1 peptide monomer, amino acids 931-975	2,200 cps	2,000 cps	–	0.94	EC50 (TIMP-3; [2]): 1080 nM
LA6: LRP-1 peptide monomer, amino acids 976-1014	2,200 cps	–	–	1.07	–
LA16: LRP-1 peptide monomer, amino acids 2734-2773	2,200 cps	–	–	0.94	–
LA17: LRP-1 peptide monomer, amino acids 2774-2817	2,200 cps	–	–	1.06	EC50 (TIMP-3; [2]): > 5000 nM
LA18-20: LRP-1 peptide multimer, amino acids 2818- (end not printed)	3,000 cps	–	–	–	EC50 (TIMP-3; [3]): ~300 nM
LA18: LRP-1 peptide monomer, amino acids 2818-2857	2,200 cps	–	–	1.11	EC50 (TIMP-3; [2]): > 10000 nM
LA19: LRP-1 peptide monomer, amino acids 2858-2903	2,200 cps	–	–	1.06	EC50 (TIMP-3; [2]): > 10000 nM
LA20: LRP-1 peptide monomer, amino acids 2904-2943 (CNASSQFLCSSGRCVAEALLCNGQDDCGDSSDERGCHINE)	2,200 cps	–	–	0.96	EC50 (TIMP-3; [2]): > 10000 nM
LA21-23: LRP-1 peptide multimer, amino acids 3334- (end not printed)	3,000 cps	–	4.46	–	EC50 (TIMP-3; [3]): 243 nM
LA21: LRP-1 peptide monomer, amino acids 3334-3373	2,200 cps	–	–	1.82	–
LA22: LRP-1 peptide monomer, amino acids 3374-3412	2,200 cps	–	–	0.96	–
LA23-24: LRP-1 peptide multimer, amino acids 3413-3493	2,200 cps	2,000 cps	1.38	–	–
LA23: LRP-1 peptide monomer, amino acids 3413-3452	2,200 cps	–	–	0.87	EC50 (TIMP-3; [2]): > 5000 nM
LA24-25: LRP-1 peptide multimer, amino acids 3453-3535	290,000 cps	130,000 cps	2.48	–	–
LA24-26: LRP-1 peptide multimer, amino acids 3453- (end not printed)	150,000 cps	120,000 cps	10.38	–	–
LA24: LRP-1 peptide monomer, amino acids 3453-3493	2,200 cps	2,000 cps	–	0.41	–
LA25-26: LRP-1 peptide multimer, amino acids printed as 3594-3574	20,000 cps	5,000 cps	9.30	–	–
LA25: LRP-1 peptide monomer, amino acids 3494-3535	5,000 cps	2,000 cps	1.24	–	–
LA26: LRP-1 peptide monomer, amino acids 3536-3574	2,200 cps	–	1.01	–	–
LA27: LRP-1 peptide monomer, amino acids 3575-3612	2,200 cps	–	0.65	–	–
LA13-15: LRP-1 peptide multimer, amino acids 2605- (end not printed) (protein) CGVGEFRCRDGTCIGNSSRCNQFVDCEDASDEMNCSATDCSSYFRLGVKGVLFQPCERTSLCYAPSWVCDGANDCGDYSDERDCPGVKRPRCPLNYFACPSGRCIPMSWTCDKEDDCEHGEDETHCNKF	1,200 cps	–	–	–	–
Cluster I: LRP-1 peptide, amino acids 27-114 of LRP-1 (SEQ ID NO:1) (protein, listed as Homo sapiens) CSPKQFACRDQITCISKGWRCDGERDCPDGSDEAPEICPQSKAQRCQPNEHNCLGTELCVPMSRLCNGVQDCMDGSDEGPHCRELQGN	–	–	0.87	0.65	TIMP-3 (ng/ml) in conditioned medium (HTB-94 cells; Table 5, polypeptide 0.5 microM): 1.02 ng/mL; TIMP-3 (ng/ml) in conditioned medium (HTB-94 cells; Table 5, polypeptide 1 microM): 0.86 ng/mL; TIMP-3 (ng/ml) in conditioned medium (HTB-94 cells; Table 5, polypeptide 2 microM): 0.81 ng/mL; TIMP-3 (ng/ml) in conditioned medium (HTB-94 cells; Table 8, polypeptide 0.5 microM): 1.41 ng/mL; TIMP-3 (ng/ml) in conditioned medium (HTB-94 cells; Table 8, polypeptide 1 microM): 1.19 ng/mL; TIMP-3 (ng/ml) in conditioned medium (HTB-94 cells; Table 8, polypeptide 2 microM): 1.44 ng/mL; Accumulation of TIMP-3 in conditioned medium by Western blot (HTB-94 cells): did not result in significant accumulation
LA15-17: LRP-1 peptide multimer, amino acids 2696- (end not printed) (protein) CPLNYFACPSGRCIPMSWTCDKEDDCEHGEDETHCNKFCSEAQFECQNHRCISKQWLCDGSDDCGDGSDEAAHCEGKTCGPSSFSCPGTHVCVPERWLCDGDKDCADGADESIAAGCLYNST	90,000 cps	70,000 cps	4.70	–	–
LA3-10: LRP-1 peptide multimer, not listed in Table 1 (protein) CQPGEFACANSRCIQERWKCDGDNDCLDNSDEAPALCHQHTCPSDRFKCENNRCIPNRWLCDGDNDCGNSEDESNATCSARTCPPNQFSCASGRCIPISWTCDLDDDCGDRSDESASCAYPTCFPLTQFTCNNGRCININWRCDNDNDCGDNSDEAGCSHSCSSTQFKCNSGRCIPEHWTCDGDNDCGDYSDETHANCTNQATRPPGGCHTDEFQCRLDGLCIPLRWRCDGDTDCMDSSDEKSCEGVTHVCDPSVKFGCKDSARCISKAWVCDGDNDCEDNSDEENCESLACRPPSHPCANNTSVCLPPDKLCDGNDDCGDGSDEGELCDQ	–	100,000 cps	–	–	EC50 (TIMP-3; [3]): 45.5 nM; EC50 (TIMP-3; Assay 3, read-out: Binding ELISA EC50 (nm) Assay 3): 32.5 nM
